{"source": "PubChem BioAssay AID977608", "origin": "cited, not measured here", "biological_target": "Cruzipain (Trypanosoma cruzi) (UniProt P25779)", "assay": "literature IC50 values for PDB complexes, PDB-derived complexes (AID 977608)", "conditions": "PDB protein-ligand complexes, protein: cruzain, chain 3I06_A, PDB entry 3I06", "data": [{"compound": "CCn1cnc2c(Nc3cc(F)cc(F)c3)nc(C=N)nc21", "values": [{"measurement": "IC50", "result": 0.2, "unit": "nM"}]}]}
